Laboratory results taken from patent publication US20090233845A1, “Methods and compositions for non-covalently enhanced receptor binding” (priority 2008, published 2009).

Tested on: NIH/3T3 cells
Test: Mitogenic assay on FGF-2-responsive cells (heparin control test, CellTiter AQueous One, OD 490 nm)
Format: cell-based
Protocol: We developed a mitogenic assay on cells responsive to FGF-2. The assay is run in the presence of a submaximal concentration of FGF-2 (10 ng/mL). […] At 72 h of incubation in the presence of 10 ng/mL of FGF-2, the addition of 10 μg/mL of heparin increased mitogenic activity by 58%.
Organic compounds of the invention may be assayed for their effect on FGF-2 stimulation of growth using this assay. […] For example, a “hit” can be defined as an increase in activity of >50%, in the presence of 10 ng/mL FGF-2 (with no added heparin).
The details of the assay are as follows.
1. Trypsinize cells. Remove a small aliquot of cell suspension for cell count and viability.
4. Transfer 80 μL of cell suspension to the appropriate wells of three 96-well tissue culture-treated plates.
5. Incubate plates at 37° C./5% CO2 for 18 hr.
Add 80 μL/well DMEM/0.1% BCS/1% Pen-Strep (0.1% BCS media), and incubate cells for 24 hr at 37° C./5% CO2.
A mass of 20 mg of heparin was dissolved in 2.0 mL of 0.1% BCS media for a final concentration of 10 mg/mL.
Preparation of 10× Heparin Solution: The 10 mg/mL heparin solution was diluted to 100 μg/mL by adding 50 μL of the 10 mg/mL solution to 4,950 μL of 0.1% BCS media.
A 1:10 intermediate dilution was prepared by adding 10 μL of 100 μg/mL FGF-2 stock to 90 μL of 1×PBS/0.5% BSA, for a final concentration of 10 μg/mL.
Preparation of 10×FGF-2: The 1:10 intermediate was further diluted by adding 50 μL to 4,950 μL of 0.1% BCS media, for a final concentration of 100 ng/mL. The 100 ng/mL FGF-2 solution was diluted by adding 500 μL to 4,500 μL of 0.1% BCS media, for a final concentration of 10 ng/mL.
6. 5× Heparin/FGF-2 Dilutions: Mix equal volumes of 10×FGF-2 (Steps 3 and 4) and 10× heparin stocks (Step 5) to create the 5× Treatment Intermediates as shown in Tables 3 and 4.
Add 20 μL of CellTiter AQueous One Solution to each of the treated wells.
Incubate for 1 hr at 37° C./5% CO2.

[1] = heparin 0.001 μg/mL, 1 ng/mL FGF-2, 24 hr
[2] = heparin 0.001 μg/mL, 1 ng/mL FGF-2, 48 hr
[3] = heparin 0.001 μg/mL, 1 ng/mL FGF-2, 72 hr
[4] = heparin 0.001 μg/mL, 10 ng/mL FGF-2, 24 hr
[5] = heparin 0.001 μg/mL, 10 ng/mL FGF-2, 48 hr
[6] = heparin 0.001 μg/mL, 10 ng/mL FGF-2, 72 hr
[7] = heparin 0.01 μg/mL, 1 ng/mL FGF-2, 24 hr
[8] = heparin 0.01 μg/mL, 1 ng/mL FGF-2, 48 hr
[9] = heparin 0.01 μg/mL, 1 ng/mL FGF-2, 72 hr
[10] = heparin 0.01 μg/mL, 10 ng/mL FGF-2, 24 hr
[11] = heparin 0.01 μg/mL, 10 ng/mL FGF-2, 48 hr
[12] = heparin 0.01 μg/mL, 10 ng/mL FGF-2, 72 hr
[13] = heparin 0.1 μg/mL, 1 ng/mL FGF-2, 24 hr
[14] = heparin 0.1 μg/mL, 1 ng/mL FGF-2, 48 hr
[15] = heparin 0.1 μg/mL, 1 ng/mL FGF-2, 72 hr
[16] = heparin 0.1 μg/mL, 10 ng/mL FGF-2, 24 hr
[17] = heparin 0.1 μg/mL, 10 ng/mL FGF-2, 48 hr
[18] = heparin 0.1 μg/mL, 10 ng/mL FGF-2, 72 hr
[19] = heparin 1 μg/mL, 1 ng/mL FGF-2, 24 hr
[20] = heparin 1 μg/mL, 1 ng/mL FGF-2, 48 hr
[21] = heparin 1 μg/mL, 1 ng/mL FGF-2, 72 hr
[22] = heparin 1 μg/mL, 10 ng/mL FGF-2, 24 hr
[23] = heparin 1 μg/mL, 10 ng/mL FGF-2, 48 hr
[24] = heparin 1 μg/mL, 10 ng/mL FGF-2, 72 hr
[25] = heparin 10 μg/mL, 1 ng/mL FGF-2, 24 hr
[26] = heparin 10 μg/mL, 1 ng/mL FGF-2, 48 hr
[27] = heparin 10 μg/mL, 1 ng/mL FGF-2, 72 hr
[28] = heparin 10 μg/mL, 10 ng/mL FGF-2, 24 hr
[29] = heparin 10 μg/mL, 10 ng/mL FGF-2, 48 hr
[30] = heparin 10 μg/mL, 10 ng/mL FGF-2, 72 hr

## FGF-2: basic fibroblast growth factor (bFGF, FGF-2), receptor-binding ligand
1 ng/mL FGF-2, 0 μg/mL heparin, 24 hr
  Mean OD490: 0.465
1 ng/mL FGF-2, 0 μg/mL heparin, 48 hr
  Mean OD490: 0.197
1 ng/mL FGF-2, 0 μg/mL heparin, 72 hr
  Mean OD490: 0.199
10 ng/mL FGF-2, 0 μg/mL heparin, 24 hr
  Mean OD490: 0.898
10 ng/mL FGF-2, 0 μg/mL heparin, 48 hr
  Mean OD490: 0.661
10 ng/mL FGF-2, 0 μg/mL heparin, 72 hr
  Mean OD490: 0.381
Assay control, 10 ng/mL FGF-2, 24 hr
  Mean OD490: 0.884
Assay control, 10 ng/mL FGF-2, 48 hr
  Mean OD490: 0.737
Assay control, 10 ng/mL FGF-2, 72 hr
  Mean OD490: 0.401

## Heparin
[1]
  Mean OD490: 0.477
  Percent Difference from 0 μg/mL Heparin Mean OD490: 2.6%
[2]
  Mean OD490: 0.222
  Percent Difference from 0 μg/mL Heparin Mean OD490: 12.7%
[3]
  Mean OD490: 0.208
  Percent Difference from 0 μg/mL Heparin Mean OD490: 4.5%
[4]
  Mean OD490: 0.912
  Percent Difference from 0 μg/mL Heparin OD490: 1.6%
[5]
  Mean OD490: 0.641
  Percent Difference from 0 μg/mL Heparin OD490: −3.0%
[6]
  Mean OD490: 0.416
  Percent Difference from 0 μg/mL Heparin OD490: 9.2%
[7]
  Mean OD490: 0.430
  Percent Difference from 0 μg/mL Heparin Mean OD490: −7.5%
[8]
  Mean OD490: 0.200
  Percent Difference from 0 μg/mL Heparin Mean OD490: 1.5%
[9]
  Mean OD490: 0.199
  Percent Difference from 0 μg/mL Heparin Mean OD490: 0.0%
[10]
  Mean OD490: 0.859
  Percent Difference from 0 μg/mL Heparin OD490: −4.3%
[11]
  Mean OD490: 0.641
  Percent Difference from 0 μg/mL Heparin OD490: −3.0%
[12]
  Mean OD490: 0.417
  Percent Difference from 0 μg/mL Heparin OD490: 9.4%
[13]
  Mean OD490: 0.419
  Percent Difference from 0 μg/mL Heparin Mean OD490: −9.9%
[14]
  Mean OD490: 0.226
  Percent Difference from 0 μg/mL Heparin Mean OD490: 14.7%
[15]
  Mean OD490: 0.199
  Percent Difference from 0 μg/mL Heparin Mean OD490: 0.0%
[16]
  Mean OD490: 0.863
  Percent Difference from 0 μg/mL Heparin OD490: −3.9%
[17]
  Mean OD490: 0.830
  Percent Difference from 0 μg/mL Heparin OD490: 25.6%
[18]
  Mean OD490: 0.459
  Percent Difference from 0 μg/mL Heparin OD490: 20.5%
[19]
  Mean OD490: 0.398
  Percent Difference from 0 μg/mL Heparin Mean OD490: −14.4%
[20]
  Mean OD490: 0.202
  Percent Difference from 0 μg/mL Heparin Mean OD490: 2.5%
[21]
  Mean OD490: 0.212
  Percent Difference from 0 μg/mL Heparin Mean OD490: 6.5%
[22]
  Mean OD490: 0.938
  Percent Difference from 0 μg/mL Heparin OD490: 4.5%
[23]
  Mean OD490: 0.978
  Percent Difference from 0 μg/mL Heparin OD490: 48.0%
[24]
  Mean OD490: 0.583
  Percent Difference from 0 μg/mL Heparin OD490: 53.0%
[25]
  Mean OD490: 0.433
  Percent Difference from 0 μg/mL Heparin Mean OD490: −6.9%
[26]
  Mean OD490: 0.196
  Percent Difference from 0 μg/mL Heparin Mean OD490: −0.5%
[27]
  Mean OD490: 0.188
  Percent Difference from 0 μg/mL Heparin Mean OD490: −5.5%
[28]
  Mean OD490: 1.071
  Percent Difference from 0 μg/mL Heparin OD490: 19.3%
[29]
  Mean OD490: 0.992
  Percent Difference from 0 μg/mL Heparin OD490: 50.1%
[30]
  Mean OD490: 0.602
  Percent Difference from 0 μg/mL Heparin OD490 (increase in mitogenic activity): 58.0%
Heparin 10 μg/mL, 10 ng/mL FGF-2, 72 hr, listed as heparin
  Percent Difference from 0 μg/mL Heparin OD490 (increase in mitogenic activity): 58%
Increasing concentrations of heparin, FIG. 18
  FGF-2 activity in the presence of heparin: increased with increasing concentrations of heparin
